Source: US10093973B2, “Polymerase compositions and methods” (LIFE TECHNOLOGIES CORPORATION, priority 2009, dated 2018)
Numbering of substitutions follows the chain as printed.

Tests used:
[1] = test system: ωdN4P and extendible AF546 primer:template duplex; test: Stopped-flow tpol measurement of Example 8; format: biochemical; settings: modified versus reference polymerase, ωdN4P 14 μM
Description: In this example, the tpol values of an exemplary modified polymerase comprising the amino acid of SEQ ID NO: 8 and was measured and compared to the tpol value of an exemplary reference polymerase comprising the amino acid sequence of SEQ ID NO: 20. These kinetic parameters were evaluated using a stopped-flow assay wherein a mixture comprising an extendible dye-labeled primer:template duplex and test polymerase was mixed with a solution comprising terminally-labeled nucleotide tetraphosphates or terminally-labeled nucleotide hexaphosphates. These terminally-labeled nucleotides comprise terminal-phosphate-labeled nucleotides having an alkyl linker with a functional amine group attached to the dye. The fluorescence of the resulting mixture was monitored over time. Unless noted otherwise, all concentrations refer to the initial concentrations prior to mixing. […]
Each primer-template duplex (200 nM) was preincubated with test polymerase (660 nM) and to form an E.DNA binary complex. This binary complex was mixed with the cognate omega-labeled nucleoside tetraphosphate (ωdN4P; 14 μM) in a stopped-flow experiment, and the fluorescence at both 546 nm and 647 nm was monitored following mixing. The averaged stopped-flow fluorescence traces were fitted with the double exponential function of Equation (2) to extrapolate the tpol value of the test polymerase: […]

[2] = test system: AF647-C6-dG6P and Alexa Fluor 546 dye-labeled primer-template duplex; test: Stopped-flow measurement of tpol (nucleotide incorporation kinetics); format: biochemical; parameters: unit not given here; settings: tpol = 1/kpol; 7 μM AF647-C6-dG6P, 330 nM polymerase, 100 nM template/primer duplex, 2 mM MnCl2
Description: In this example, the t−1 and tpol values of a Phi-29 polymerase comprising the amino acid sequence of SEQ ID NO: 1 and a modified B103 polymerase comprising the amino acid sequence of SEQ ID NO: 8 (referred to as “mB103 in the table below) and further including amino acid substitutions at various positions were measured using a stopped-flow procedure. The stopped-flow techniques for measuring tpol (1/kpol) followed the techniques described by MP Roettger (2008 Biochemistry 47:9718-9727; M. Bakhtina 2009 Biochemistry 48:3197-320).
Stopped-Flow Measurements of tpol
The template sequence (SEQ ID NO: 44) further included an Alexa Fluor 546 dye moiety bonded to the 5′ position of the template.
The kinetics of nucleotide incorporation by each polymerase was measured in an Applied Photophysics SX20 stopped-flow spectrometer by monitoring changes in fluorescence from the dye-labeled primer-template duplex complexed to enzyme, following the mixing of the enzyme-DNA complex with dye-labeled nucleotides. These dye-labeled nucleotides comprise terminal-phosphate-labeled nucleotides having an alkyl linker with a functional amine group attached to the dye, and have the general structure shown in FIG. 11. This structure includes a sugar bonded to a hexaphosphate chain at the 5′ carbon position, and to a nucleotide base (denoted as “N”). The terminal phosphate group of the hexaphosphate is linked to a 6-carbon linker, and the other end of the 6-carbon linker is attached to a dye moiety (denoted as “dye”), typically through an amide bond. In this example, the particular dye-labeled nucleotide added was a labeled nucleotide hexaphosphate comprising a guanine base at the N (base) position and an Alexa Fluor 647 (AF647) at the dye position, and is referred to herein as “AF647-C6-dG6P”.
The primer and template were annealed to form a dye-labeled primer-template duplex using standard methods. This duplex was preincubated with polymerase. The mixture included 330 nM recombinant DNA polymerase, 100 nM template/primer duplex in buffer (“reaction buffer”) comprising 50 mM Tris-HCl, pH 7.5, 50 mM NaCl, 4 mM DTT, 0.2% BSA, and 2 mM MnCl2. The dye-labeled nucleotide AF647-C6-dG6P was then added to a final concentration of 7 μM, and the resulting fluorescence was monitored over time.
The averaged (5 traces) stopped-flow fluorescence traces (>1.5 ms) were fitted with a double exponential equation (1) to extrapolate the rates of the nucleotide binding and product release, Fluorescence=A1*e^−k1*t+A2*e^−kpol*t+C (equation 1) where A1 and A2 represent corresponding fluorescence amplitudes, C is an offset constant, and k1 and kpol are the observed rate constants for the fast and slow phases of the fluorescence transition, respectively.

mB103 (SEQ ID: 8): B103 polymerase triple mutant with D166A, F383L and D384N
estimated tpol values [1]: comparable
tpol [2]: 14
